According to patent US12447153B2, “HER2 mutation inhibitors” (Array BioPharma Inc., priority 2021, dated 2025):

What was measured:
MDR1 (P-gp) = MDR1 (P-gp) (Homo sapiens (Human), UniProt P08183); assay: in vitro; settings: pig, LLC-PK1
ErbB2 WT = ErbB2 WT (Homo sapiens (Human), UniProt P04626); assay: ErbB Enzyme Assay (HTRF KinEASE-TK), Assay 2; type: biochemical
EGFR = EGFR (Homo sapiens (Human), UniProt P00533); assay: ErbB Enzyme Assay (HTRF KinEASE-TK), Assay 3; type: biochemical
[1] = biological target: ErbB2 with Exon 20 YVMA insertion (HER2-YVMA) (Homo sapiens (Human), UniProt P04626, INS775YVMA); assay: Cellular Phosphorylation Assay, Assay 4 (constitutive ErbB2 phosphorylation, NIH 3T3 cells); type: cell-based
Chain of ErbB2 with Exon 20 YVMA insertion (HER2-YVMA) (P04626 other isoform, or with tags, fused parts or gaps ins YVMA behind 775): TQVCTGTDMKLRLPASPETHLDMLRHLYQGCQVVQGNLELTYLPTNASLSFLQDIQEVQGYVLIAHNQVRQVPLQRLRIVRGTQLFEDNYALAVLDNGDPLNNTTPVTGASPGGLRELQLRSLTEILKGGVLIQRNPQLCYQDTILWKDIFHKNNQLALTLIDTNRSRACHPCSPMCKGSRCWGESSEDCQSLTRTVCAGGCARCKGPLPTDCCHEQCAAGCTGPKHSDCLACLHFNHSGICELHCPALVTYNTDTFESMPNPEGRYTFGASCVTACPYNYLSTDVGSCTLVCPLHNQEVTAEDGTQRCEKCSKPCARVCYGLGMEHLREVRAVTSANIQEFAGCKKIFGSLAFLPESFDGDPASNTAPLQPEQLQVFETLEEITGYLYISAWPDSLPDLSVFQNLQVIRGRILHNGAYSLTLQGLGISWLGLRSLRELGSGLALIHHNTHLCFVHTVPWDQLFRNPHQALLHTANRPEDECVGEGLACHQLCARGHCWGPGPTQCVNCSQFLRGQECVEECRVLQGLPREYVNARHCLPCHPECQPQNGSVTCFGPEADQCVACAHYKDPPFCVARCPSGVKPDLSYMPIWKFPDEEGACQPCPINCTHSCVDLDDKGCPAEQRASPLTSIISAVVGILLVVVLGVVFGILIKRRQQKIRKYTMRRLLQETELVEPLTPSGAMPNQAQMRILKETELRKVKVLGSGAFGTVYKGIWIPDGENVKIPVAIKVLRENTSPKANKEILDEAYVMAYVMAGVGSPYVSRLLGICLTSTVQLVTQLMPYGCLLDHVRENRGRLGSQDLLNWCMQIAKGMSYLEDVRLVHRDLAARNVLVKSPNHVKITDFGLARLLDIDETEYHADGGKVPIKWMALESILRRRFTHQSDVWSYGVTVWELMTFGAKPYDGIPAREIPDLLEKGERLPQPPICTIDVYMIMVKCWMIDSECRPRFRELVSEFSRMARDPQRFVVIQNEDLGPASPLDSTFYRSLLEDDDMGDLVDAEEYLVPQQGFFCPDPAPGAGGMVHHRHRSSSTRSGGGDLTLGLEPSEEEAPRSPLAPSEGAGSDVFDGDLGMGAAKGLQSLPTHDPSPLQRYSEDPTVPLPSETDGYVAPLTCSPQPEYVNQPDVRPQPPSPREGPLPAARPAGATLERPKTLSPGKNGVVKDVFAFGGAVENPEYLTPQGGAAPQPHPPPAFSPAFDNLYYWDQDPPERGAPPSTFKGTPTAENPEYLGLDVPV

EGFR wild type (EGFR WT) = EGFR wild type (EGFR WT) (Homo sapiens (Human), UniProt P00533); assay: Cellular Phosphorylation Assay, Assay 5 (EGF-stimulated EGFR phosphorylation, NIH 3T3 cells); type: cell-based
Chain of EGFR wild type (EGFR WT) (P00533 25-1210): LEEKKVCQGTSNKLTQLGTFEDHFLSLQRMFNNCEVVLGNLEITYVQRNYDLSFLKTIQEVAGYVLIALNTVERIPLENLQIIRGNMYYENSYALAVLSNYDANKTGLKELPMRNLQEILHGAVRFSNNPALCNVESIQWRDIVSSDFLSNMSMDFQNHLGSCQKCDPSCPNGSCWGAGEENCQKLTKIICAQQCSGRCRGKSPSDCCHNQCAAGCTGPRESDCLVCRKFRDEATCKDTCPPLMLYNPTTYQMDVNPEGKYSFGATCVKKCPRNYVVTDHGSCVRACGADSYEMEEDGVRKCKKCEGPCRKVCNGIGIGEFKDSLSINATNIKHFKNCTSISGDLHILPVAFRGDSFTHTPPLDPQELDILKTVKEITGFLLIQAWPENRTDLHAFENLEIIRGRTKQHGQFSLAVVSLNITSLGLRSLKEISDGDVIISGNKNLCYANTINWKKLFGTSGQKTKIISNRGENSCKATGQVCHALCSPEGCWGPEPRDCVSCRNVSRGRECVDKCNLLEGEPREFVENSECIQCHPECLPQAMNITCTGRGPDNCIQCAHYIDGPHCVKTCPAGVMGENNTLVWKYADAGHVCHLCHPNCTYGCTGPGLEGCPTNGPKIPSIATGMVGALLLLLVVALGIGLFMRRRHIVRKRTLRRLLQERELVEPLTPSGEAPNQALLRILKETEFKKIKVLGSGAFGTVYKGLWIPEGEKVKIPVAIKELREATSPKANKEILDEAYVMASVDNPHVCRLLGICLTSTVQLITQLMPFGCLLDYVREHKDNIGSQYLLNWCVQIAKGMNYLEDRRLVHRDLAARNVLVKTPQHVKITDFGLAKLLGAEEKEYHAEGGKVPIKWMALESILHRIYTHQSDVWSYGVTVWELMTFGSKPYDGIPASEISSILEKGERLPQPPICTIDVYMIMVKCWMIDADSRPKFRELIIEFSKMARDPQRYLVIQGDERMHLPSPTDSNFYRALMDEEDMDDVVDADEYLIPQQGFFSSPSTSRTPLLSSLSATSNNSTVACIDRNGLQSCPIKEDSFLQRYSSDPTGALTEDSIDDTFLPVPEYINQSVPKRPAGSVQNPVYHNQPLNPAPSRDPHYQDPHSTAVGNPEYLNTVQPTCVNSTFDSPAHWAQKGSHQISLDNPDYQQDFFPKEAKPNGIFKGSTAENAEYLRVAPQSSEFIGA

BCRP = BCRP (Homo sapiens (Human), UniProt Q9UNQ0); assay: BCRP MDCKII efflux assay (Assay 7); type: in vitro ADME; settings: dog; efflux ratio Papp(B-A)/Papp(A-B), BCRP MDCKII cells; read-out: Assay 7 Pe Ratio
Chain of BCRP (Q9UNQ0 whole entry): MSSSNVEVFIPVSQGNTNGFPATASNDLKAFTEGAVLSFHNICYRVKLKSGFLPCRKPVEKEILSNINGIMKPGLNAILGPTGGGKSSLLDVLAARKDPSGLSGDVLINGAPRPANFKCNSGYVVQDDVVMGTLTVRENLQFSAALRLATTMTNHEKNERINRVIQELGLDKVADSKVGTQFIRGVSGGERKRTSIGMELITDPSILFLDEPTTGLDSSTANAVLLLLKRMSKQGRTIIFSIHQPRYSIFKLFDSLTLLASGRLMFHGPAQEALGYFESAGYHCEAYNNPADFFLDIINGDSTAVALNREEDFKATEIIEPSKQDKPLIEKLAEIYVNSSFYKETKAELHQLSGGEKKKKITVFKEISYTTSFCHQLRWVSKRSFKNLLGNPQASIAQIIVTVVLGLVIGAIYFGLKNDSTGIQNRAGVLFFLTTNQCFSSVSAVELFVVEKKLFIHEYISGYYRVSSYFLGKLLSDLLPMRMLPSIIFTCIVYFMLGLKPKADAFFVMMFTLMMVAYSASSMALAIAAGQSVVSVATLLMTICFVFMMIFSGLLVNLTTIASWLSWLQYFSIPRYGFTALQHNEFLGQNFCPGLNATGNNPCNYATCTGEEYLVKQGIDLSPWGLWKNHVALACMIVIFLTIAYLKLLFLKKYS
Experimental: Assay conditions included with and without the BCRP-specific inhibitor, KO143, at a concentration of 0.3 μM to ascertain the contribution of BCRP to the efflux value of the test compound.
Final organic concentration in the assay was 1%.

[2] = EGF-stimulated EGFR WT phosphorylation
[3] = cellular ErbB2 YVMA phosphorylation
[4] = cellular EGFR WT phosphorylation, EGF-stimulated

Chain of EGFR (P00533 25-1210): as the sequence (P00533 25-1210) above

C=CC(=O)N1CCC(Oc2ccc3ncnc(Nc4ccc(Oc5ccn6ccnc6c5)c(C)c4)c3n2)CC1 [Example 15, 1-(4-((4-((4-(imidazo[1,2-a]pyridin-7-yloxy)-3-methylphenyl)amino)pyrido[3,2-d]pyrimidin-6-yl)oxy)piperidin-1-yl)prop-2-en-1-one]
efflux ratio at 2 h, 1 µM (MDR1 (P-gp)): 10.2
IC50 (ErbB2 WT; ErbB2 WT enzyme): 45.5 nM
IC50 (EGFR; EGFR enzyme): 1680 nM
IC50 ([1]; ErbB2 YVMA phosphorylation): 12.8 nM
IC50 (EGFR wild type (EGFR WT); [2]): 555 nM

C=CC(=O)N1CCC(Oc2ccc3ncnc(Nc4ccc(Oc5ccn6ncnc6c5)c(C)c4F)c3n2)CC1 [Example 17, 1-(4-((4-((4-([1,2,4]triazolo[1,5-a]pyridin-7-yloxy)-2-fluoro-3-methylphenyl)amino)pyrido[3,2-d]pyrimidin-6-yl)oxy)piperidin-1-yl)prop-2-en-1-one]
efflux ratio at 2 h, 1 µM (MDR1 (P-gp)): 2.7
IC50 (ErbB2 WT; ErbB2 WT enzyme): 48.3 nM
IC50 (EGFR; EGFR enzyme): 2110 nM
IC50 ([1]; ErbB2 YVMA phosphorylation): 14 nM
IC50 (EGFR wild type (EGFR WT); [2]): 1220 nM

C=CC(=O)N1CCC(N(C)c2ccc3ncnc(Nc4ccc(Oc5ccn6ncnc6c5)c(C)c4F)c3n2)CC1 [Example 32, 1-(4-((4-((4-([1,2,4]triazolo[1,5-a]pyridin-7-yloxy)-2-fluoro-3-methylphenyl)amino)pyrido[3,2-d]pyrimidin-6-yl)(methyl)amino)piperidin-1-yl)prop-2-en-1-one]
efflux ratio at 2 h, 1 µM (MDR1 (P-gp)): 1.9
IC50 (ErbB2 WT; ErbB2 WT enzyme): 45.8 nM
IC50 (EGFR; EGFR enzyme): 5530 nM
IC50 ([1]; ErbB2 YVMA phosphorylation): 131 nM
IC50 (EGFR wild type (EGFR WT); [2]): ≥ 5000 nM

C=CC(=O)N1CCN(c2ccc3ncnc(Nc4cc(Cl)c(Oc5ccn6ncnc6c5)cc4F)c3n2)C[C@@H]1COC [Example 346]
efflux ratio at 2 h, 1 µM (BCRP): 14.2
IC50 (ErbB2 WT; ErbB2 WT enzyme assay): 14.3 nM
IC50 (EGFR; EGFR enzyme assay): 1370 nM
IC50 [1, 3]: 15.4 nM
IC50 (EGFR wild type (EGFR WT); [4]): 1440 nM

C=CC(=O)N(C)[C@H]1CCN(c2ccc3ncnc(Nc4cc(C)c(Oc5ccn6ncnc6c5)cc4F)c3n2)C1 [Example 351]
efflux ratio at 2 h, 1 µM (BCRP): 6.4
IC50 (ErbB2 WT; ErbB2 WT enzyme assay): 66.4 nM
IC50 (EGFR; EGFR enzyme assay): 2860 nM
IC50 [1, 3]: 31 nM
IC50 (EGFR wild type (EGFR WT); [4]): ≥ 5000 nM

C=CC(=O)N1C[C@H]2C[C@@H]1CN(c1ccc3ncnc(Nc4cc(C)c(Oc5cnc6c(c5)ncn6C)cc4F)c3n1)C2 [Example 353]
efflux ratio at 2 h, 1 µM (BCRP): 17.2
IC50 (ErbB2 WT; ErbB2 WT enzyme assay): 474 nM
IC50 (EGFR; EGFR enzyme assay): ≥ 10000 nM
IC50 [1, 3]: 49.5 nM
IC50 (EGFR wild type (EGFR WT); [4]): ≥ 5000 nM

C=CC(=O)N1CCN(c2ccc3ncnc(Nc4cc(C)c(Oc5cnc6c(c5)ncn6C)cc4F)c3n2)CC12CC2 [Example 354]
efflux ratio at 2 h, 1 µM (BCRP): 13.4
IC50 (ErbB2 WT; ErbB2 WT enzyme assay): 31.6 nM
IC50 (EGFR; EGFR enzyme assay): ≥ 10000 nM
IC50 [1, 3]: 8.8 nM
IC50 (EGFR wild type (EGFR WT); [4]): ≥ 5000 nM

C=CC(=O)N1CCN(c2ccc3ncnc(Nc4ccc(Oc5ccn6ncnc6c5)c(C)c4F)c3n2)C[C@H]1COC [Example 358]
efflux ratio at 2 h, 1 µM (BCRP): 8.5
IC50 (ErbB2 WT; ErbB2 WT enzyme assay): 10 nM
IC50 (EGFR; EGFR enzyme assay): 237 nM
IC50 [1, 3]: 2.9 nM
IC50 (EGFR wild type (EGFR WT); [4]): 83.2 nM

C=CC(=O)N1[C@H](C)CN(c2ccc3ncnc(Nc4ccc(Oc5cc(F)c6c(c5)ncn6C)c(C)c4)c3n2)C[C@@H]1C [Example 359]
efflux ratio at 2 h, 1 µM (BCRP): 14.4
IC50 (ErbB2 WT; ErbB2 WT enzyme assay): 47.2 nM
IC50 (EGFR; EGFR enzyme assay): 3370 nM
IC50 [1, 3]: 21 nM
IC50 (EGFR wild type (EGFR WT); [4]): ≥ 5000 nM

C=CC(=O)N1CCN(c2ccc3ncnc(Nc4ccc(Oc5ccn6ncnc6c5)c(C)c4F)c3n2)C[C@@H]1COC [Example 362]
efflux ratio at 2 h, 1 µM (BCRP): 7.4
IC50 (ErbB2 WT; ErbB2 WT enzyme assay): 9.7 nM
IC50 (EGFR; EGFR enzyme assay): 1080 nM
IC50 [1, 3]: 5.5 nM
IC50 (EGFR wild type (EGFR WT); [4]): 818 nM

C=CC(=O)N1C[C@H]2C[C@@H]1[C@H](c1ccc3ncnc(Nc4cc(C)c(Oc5ccc6c(c5)ncn6C)cc4F)c3n1)C2 [Example 374]
efflux ratio at 2 h, 1 µM (BCRP): 3.4
IC50 (ErbB2 WT; ErbB2 WT enzyme assay): 16.5 nM
IC50 (EGFR; EGFR enzyme assay): 2660 nM
IC50 [1, 3]: 20.5 nM
IC50 (EGFR wild type (EGFR WT); [4]): ≥ 5000 nM

C=CC(=O)N1C[C@@H]2C[C@H]1C[C@H]2c1ccc2ncnc(Nc3cc(C)c(Oc4ccc5c(c4)ncn5C)cc3F)c2n1 [Example 375]
efflux ratio at 2 h, 1 µM (BCRP): 4
IC50 (ErbB2 WT; ErbB2 WT enzyme assay): 43.6 nM
IC50 (EGFR; EGFR enzyme assay): 1030 nM
IC50 [1, 3]: 19 nM
IC50 (EGFR wild type (EGFR WT); [4]): 2020 nM

C=CC(=O)N1CC[C@H]2C[C@H](c3ccc4ncnc(Nc5ccc(Oc6ccn7ncnc7c6)c(C)c5)c4n3)C[C@H]21 [Example 383]
efflux ratio at 2 h, 1 µM (BCRP): 9.5
IC50 (ErbB2 WT; ErbB2 WT enzyme assay): 12.5 nM
IC50 (EGFR; EGFR enzyme assay): 979 nM
IC50 [1, 3]: 17.5 nM
IC50 (EGFR wild type (EGFR WT); [4]): 488 nM

C=CC(=O)N1C[C@H]2C[C@@H]1[C@H](c1ccc3ncnc(Nc4ccc(Oc5ccn6ncnc6c5)c(C)c4)c3n1)C2 [Example 405]
efflux ratio at 2 h, 1 µM (BCRP): 13.7
IC50 (ErbB2 WT; ErbB2 WT enzyme assay): 19.5 nM
IC50 (EGFR; EGFR enzyme assay): 1640 nM
IC50 [1, 3]: 17.2 nM
IC50 (EGFR wild type (EGFR WT); [4]): 4550 nM

C=CC(=O)N1C[C@H]2C[C@@H]1[C@H](c1ccc3ncnc(Nc4ccc(Oc5cnc6c(c5)ncn6C)c(C)c4)c3n1)C2 [Example 407]
efflux ratio at 2 h, 1 µM (BCRP): 16
IC50 (ErbB2 WT; ErbB2 WT enzyme assay): 38 nM
IC50 (EGFR; EGFR enzyme assay): 1510 nM
IC50 [1, 3]: 20.4 nM
IC50 (EGFR wild type (EGFR WT); [4]): ≥ 5000 nM

C=CC(=O)N1C[C@H]2CC[C@@H]1C[C@@H]2c1ccc2ncnc(Nc3cc(C)c(Oc4cnc5c(c4)ncn5C)cc3F)c2n1 [Example 420]
efflux ratio at 2 h, 1 µM (BCRP): 2.5
IC50 (ErbB2 WT; ErbB2 WT enzyme assay): 289 nM
IC50 (EGFR; EGFR enzyme assay): ≥ 10000 nM
IC50 [1, 3]: 33.8 nM
IC50 (EGFR wild type (EGFR WT); [4]): ≥ 5000 nM

C=CC(=O)N1C2CCC1CN(c1ccc3ncnc(Nc4cc(Cl)c(Oc5ccn6ncnc6c5)cc4F)c3n1)C2 [Example 434]
efflux ratio at 2 h, 1 µM (BCRP): 13.6
IC50 (ErbB2 WT; ErbB2 WT enzyme assay): 20.8 nM
IC50 (EGFR; EGFR enzyme assay): 1230 nM
IC50 [1, 3]: 9.8 nM
IC50 (EGFR wild type (EGFR WT); [4]): 3490 nM

C=CC(=O)N1CCN(c2ccc3ncnc(Nc4ccc(Oc5cnc6c(c5)ncn6C)c(C)c4F)c3n2)C[C@@H]1C [Example 437]
efflux ratio at 2 h, 1 µM (BCRP): 9.3
IC50 (ErbB2 WT; ErbB2 WT enzyme assay): 148 nM
IC50 (EGFR; EGFR enzyme assay): 9730 nM
IC50 [1, 3]: 18.6 nM
IC50 (EGFR wild type (EGFR WT); [4]): 4910 nM

C=CC(=O)N1CC2CCC(C1)N2c1ccc2ncnc(Nc3cc(Cl)c(Oc4ccn5ncnc5c4)cc3F)c2n1 [Example 441]
efflux ratio at 2 h, 1 µM (BCRP): 7.3
IC50 (ErbB2 WT; ErbB2 WT enzyme assay): 31.1 nM
IC50 (EGFR; EGFR enzyme assay): 682 nM
IC50 [1, 3]: 17.8 nM
IC50 (EGFR wild type (EGFR WT); [4]): 770 nM

C=CC(=O)N1C2CCC1CN(c1ccc3ncnc(Nc4cc(C)c(Oc5ccn6ncnc6c5)cc4F)c3n1)C2 [Example 443]
efflux ratio at 2 h, 1 µM (BCRP): 10
IC50 (ErbB2 WT; ErbB2 WT enzyme assay): 90.6 nM
IC50 (EGFR; EGFR enzyme assay): 4150 nM
IC50 [1, 3]: 25.5 nM
IC50 (EGFR wild type (EGFR WT); [4]): 2820 nM

C=CC(=O)N1C2CCC1CN(c1ccc3ncnc(Nc4ccc(Oc5ccn6ncnc6c5)c(C)c4F)c3n1)C2 [Example 444]
efflux ratio at 2 h, 1 µM (BCRP): 9
IC50 (ErbB2 WT; ErbB2 WT enzyme assay): 12 nM
IC50 (EGFR; EGFR enzyme assay): 379 nM
IC50 [1, 3]: 5.9 nM
IC50 (EGFR wild type (EGFR WT); [4]): 352 nM

C=CC(=O)N1C2CC1CN(c1ccc3ncnc(Nc4cc(C)c(Oc5cnc6c(c5)ncn6C)cc4F)c3n1)C2 [Example 446]
efflux ratio at 2 h, 1 µM (BCRP): 19.4
IC50 (ErbB2 WT; ErbB2 WT enzyme assay): 2560 nM
IC50 (EGFR; EGFR enzyme assay): ≥ 10000 nM
IC50 [1, 3]: 28 nM
IC50 (EGFR wild type (EGFR WT); [4]): ≥ 5000 nM

C=CC(=O)N1CCN(c2ccc3ncnc(Nc4ccc(Oc5ccc6c(c5)ncn6C)c(C(F)F)c4)c3n2)CC1 [Example 447]
efflux ratio at 2 h, 1 µM (BCRP): 20.3
IC50 (ErbB2 WT; ErbB2 WT enzyme assay): 29.2 nM
IC50 (EGFR; EGFR enzyme assay): ≥ 10000 nM
IC50 [1, 3]: 17.5 nM
IC50 (EGFR wild type (EGFR WT); [4]): ≥ 5000 nM

C=CC(=O)N1CCN(c2ccc3ncnc(Nc4cc(Cl)c(Oc5cnc6c(c5)ncn6C)cc4F)c3n2)CC1(C)C [Example 452]
efflux ratio at 2 h, 1 µM (BCRP): 6.2
IC50 (ErbB2 WT; ErbB2 WT enzyme assay): 452 nM
IC50 (EGFR; EGFR enzyme assay): 1060 nM
IC50 [1, 3]: 12.8 nM
IC50 (EGFR wild type (EGFR WT); [4]): ≥ 5000 nM

C=CC(=O)N1CC2CCC(C1)N2c1ccc2ncnc(Nc3ccc(Oc4ccn5ncnc5c4)c(C)c3F)c2n1 [Example 455]
efflux ratio at 2 h, 1 µM (BCRP): 9.6
IC50 (ErbB2 WT; ErbB2 WT enzyme assay): 4.1 nM
IC50 (EGFR; EGFR enzyme assay): 87.3 nM
IC50 [1, 3]: 4.8 nM
IC50 (EGFR wild type (EGFR WT); [4]): 193 nM
